The record followed here is US20210347724A1, “METHOXYCHALCONE DERIVATIVES AND USES THEREOF” (The Board of Trustees of the Leland Stanford Junior …, priority 2020, published 2021).

SMILES strings stand for the structures.

One may read the half-life as the time needed for the level to fall by half in the phase considered. Read a high half-life as slow loss.

The data set in a line: Pharmacokinetics study. In kind it is in vivo, Balb/c male mice. To be noted: male, Balb/c, mouse, ip; 50 mg/kg i.p., plasma. As to the method:
Pharmacokinetics study. Mass quantification analysis was carried out using an Agilent 6490 iFunnel triple quadrupole (QQQ) mass spectrometer equipped with an Agilent 1290 infinity II UHPLC. ZORBAX C18 (Eclipse Plus, 2.1×50 mm, 1.8 μm particle size) was used as analytical UHPLC column. The mobile phase was composed of 50% mixture of water (with 0.1% formic acid and 4 mM ammonium formate) and acetonitrile (0.1% formic acid). The flow rate of mobile phase was set at 0.5 mL/min and column temperature was adjusted at 30° C. The electrospray ionization source was operated in positive ion mode. […] For SU086-CD3 the [M+H]^+ ions were monitored at m/z 347.1 as the precursor ion and a fragment at m/z 198.1 as the product ion. […] Blood was collected retro-orbitally at 5, 15, 30, 60, 120, 360 and 720 minutes after injection in three mice per time point. Blood plasma was separated via centrifugation at 7,000 RPM for 10 minutes. Each plasma sample was mixed with SU086-CD3 internal standard. 10 μL of plasma was mixed with 190 μL MS-grade acetonitrile and vortexed 30 seconds followed by 5 minutes incubation at RT. Mixture was centrifuged at 11,000 RPM for 15 min at 4° C. and supernatant was collected and further cleaned by re-centrifugation. Each protein-free plasma fraction (n=3, from three independent mouse) was resolved using the HPLC/MS MRM method as described above.

`COc1cc(OC)c(C(=O)/C=C/c2cccc([N+](=O)[O-])c2)c(OC)c1` [SU086] showed a half-life of 1 h.
